Results from patent US10597388B2, “Pyridazinone herbicides” (FMC CORPORATION, priority 2014, dated 2020).

Legend:
Type in all cases: in vivo
[1] = tested on: soybean (Glycine max); assay: Test E greenhouse herbicide test, pre- and postemergence
In short: (§1)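 Greenhouse pots; preemergence on silt loam, postemergence on plants 1- to 4-leaf (2 to 18 cm) grown in peat, vermiculite and nutrient medium. Test chemicals formulated in non-phytotoxic solvent with surfactant. Ratings taken after 14 to 21 d.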

[2] = tested on: foxtail, giant (giant foxtail, Setaria faberii); assay: as above; settings: Preemergence
In short: as §1

[3] = tested on: arrowleaf sida (Sida rhombifolia); assay: as above
In short: as §1

[4] = tested on: velvetleaf (Abutilon theophrasti); assay: as above; settings: Preemergence
In short: as §1

[5] = tested on: foxtail, green (green foxtail, Setaria viridis); assay: as above; settings: Preemergence
In short: as §1

[6] = tested on: horseweed (Conyza canadensis); assay: as above; settings: Postemergence
In short: as §1

[7] = tested on: johnsongrass (Sorghum halepense); assay: as above; settings: Preemergence
In short: as §1

[8] = tested on: ragweed (common ragweed, Ambrosia elatior); assay: as above
In short: as §1

[9] = tested on: lambsquarters (Chenopodium album); assay: as above; settings: Preemergence
In short: as §1

[10] = tested on: waterhemp (common waterhemp, Amaranthus rudis); assay: as above
In short: as §1

[11] = tested on: sandbur (southem sandbur, Cenchrus echinatus); assay: as above
In short: as §1

[12] = tested on: pigweed, palmer (palmer pigweed, Amaranthus palmeri); assay: as above
In short: as §1

[13] = tested on: kochia (Kochia scoparia); assay: as above
In short: as §1

[14] = tested on: crabgrass, Brazilian (Brazilian crabgrass, Digitaria horizontalis); assay: as above
In short: as §1

[15] = tested on: nutsedge, yellow (yellow nutsedge, Cyperus esculentus); assay: as above; settings: Preemergence
In short: as §1

[16] = tested on: waterhemp_RES2 (ALS & HPPD resistant common waterhemp, Amaranthus rudis); assay: Test E greenhouse herbicide test, postemergence
In short: (§2)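 Greenhouse test, 14–21 d after postemergence treatment of 2–18 cm plants; percent control was assessed visually, 0–100, against untreated plants.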

[17] = tested on: waterhemp_RES1 (ALS & Triazine resistant common waterhemp, Amaranthus rudis); assay: Test E greenhouse herbicide test, postemergence
In short: as §2

[18] = 62 g ai/ha, Preemergence, scale 0 to 100 (0 no effect, 100 complete control)
[19] = 125 g ai/ha, Postemergence, scale 0 to 100 (0 no effect, 100 complete control)
[20] = 125 g ai/ha, Preemergence, scale 0 to 100 (0 no effect, 100 complete control)
[21] = 250 g ai/ha, Postemergence, scale 0 to 100 (0 no effect, 100 complete control)
[22] = Postemergence, 31 g ai/ha, visual, scale 0 no effect to 100 complete control
[23] = Preemergence, 31 g ai/ha, scale 0 to 100, 0 no effect, 100 complete control
[24] = Preemergence, 250 g ai/ha, visual, scale 0 no effect to 100 complete control
[25] = 62 g ai/ha, scale 0 to 100 (0 no effect, 100 complete control)
[26] = 125 g ai/ha, scale 0 to 100 (0 no effect, 100 complete control)
[27] = 31 g ai/ha, scale 0 to 100, 0 no effect, 100 complete control
[28] = 250 g ai/ha, visual, scale 0 no effect to 100 complete control
[29] = 62 g ai/ha, Postemergence, scale 0 to 100 (0 no effect, 100 complete control)
[30] = 250 g ai/ha, scale 0 to 100 (0 no effect, 100 complete control)
[31] = 31 g ai/ha, visual, scale 0 no effect to 100 complete control

Structure (SMILES): CCOC(=O)Oc1c(C)nn(C)c(=O)c1-c1c(C)sc2c(C)cc(C)cc12 [Compound 83]
- Plant response rating, Soybean [1, 18]: 0
- Plant response rating, Soybean [1, 19]: 0
- Plant response rating, Soybean [1, 20]: 0
- Plant response rating, Soybean [1, 21]: 15
- Plant response rating, Soybean [1, 22]: 0
- Plant response rating, Soybean [1, 23]: 0
- Plant response rating, Soybean [1, 24]: 0
- Plant response rating, Foxtail, Giant [2, 25]: 98
- Plant response rating, Foxtail, Giant [2, 26]: 100
- Plant response rating, Foxtail, Giant [2, 27]: 95
- Plant response rating, Foxtail, Giant [2, 28]: 100
- Plant response rating, Arrowleaf Sida [3, 29]: 50
- Plant response rating, Arrowleaf Sida [3, 18]: 25
- Plant response rating, Arrowleaf Sida [3, 19]: 60
- Plant response rating, Arrowleaf Sida [3, 20]: 35
- Plant response rating, Arrowleaf Sida [3, 21]: 60
- Plant response rating, Arrowleaf Sida [3, 22]: 50
- Plant response rating, Arrowleaf Sida [3, 23]: 15
- Plant response rating, Arrowleaf Sida [3, 24]: 65
- Plant response rating, Velvetleaf [4, 25]: 35
- Plant response rating, Velvetleaf [4, 26]: 70
- Plant response rating, Velvetleaf [4, 27]: 0
- Plant response rating, Velvetleaf [4, 28]: 100
- Plant response rating, Foxtail, Green [5, 25]: 40
- Plant response rating, Foxtail, Green [5, 26]: 95
- Plant response rating, Foxtail, Green [5, 27]: 0
- Plant response rating, Foxtail, Green [5, 28]: 70
- Plant response rating, Horseweed [6, 25]: 80
- Plant response rating, Horseweed [6, 26]: 85
- Plant response rating, Horseweed [6, 30]: 90
- Plant response rating, Horseweed [6, 31]: 75
- Plant response rating, Johnsongrass [7, 25]: 0
- Plant response rating, Johnsongrass [7, 26]: 0
- Plant response rating, Johnsongrass [7, 27]: 0
- Plant response rating, Johnsongrass [7, 28]: 20
- Plant response rating, Ragweed [8, 29]: 50
- Plant response rating, Ragweed [8, 18]: 75
- Plant response rating, Ragweed [8, 19]: 70
- Plant response rating, Ragweed [8, 20]: 95
- Plant response rating, Ragweed [8, 21]: 75
- Plant response rating, Ragweed [8, 22]: 60
- Plant response rating, Ragweed [8, 23]: 70
- Plant response rating, Ragweed [8, 24]: 98
- Plant response rating, Lambsquarters [9, 25]: 98
- Plant response rating, Lambsquarters [9, 26]: 100
- Plant response rating, Lambsquarters [9, 27]: 100
- Plant response rating, Lambsquarters [9, 28]: 100
- Plant response rating, Waterhemp [10, 18]: 65
- Plant response rating, Waterhemp [10, 19]: 40
- Plant response rating, Waterhemp [10, 20]: 75
- Plant response rating, Waterhemp [10, 21]: 60
- Plant response rating, Waterhemp [10, 22]: 40
- Plant response rating, Waterhemp [10, 23]: 65
- Plant response rating, Waterhemp [10, 24]: 75
- Plant response rating, Sandbur [11, 18]: 70
- Plant response rating, Sandbur [11, 19]: 65
- Plant response rating, Sandbur [11, 20]: 75
- Plant response rating, Sandbur [11, 21]: 70
- Plant response rating, Sandbur [11, 22]: 40
- Plant response rating, Sandbur [11, 23]: 20
- Plant response rating, Sandbur [11, 24]: 80
- Plant response rating, Pigweed, Palmer [12, 29]: 40
- Plant response rating, Pigweed, Palmer [12, 18]: 20
- Plant response rating, Pigweed, Palmer [12, 19]: 50
- Plant response rating, Pigweed, Palmer [12, 20]: 50
- Plant response rating, Pigweed, Palmer [12, 21]: 60
- Plant response rating, Pigweed, Palmer [12, 22]: 40
- Plant response rating, Pigweed, Palmer [12, 23]: 0
- Plant response rating, Pigweed, Palmer [12, 24]: 80
- Plant response rating, Kochia [13, 29]: 60
- Plant response rating, Kochia [13, 18]: 0
- Plant response rating, Kochia [13, 19]: 75
- Plant response rating, Kochia [13, 20]: 0
- Plant response rating, Kochia [13, 21]: 65
- Plant response rating, Kochia [13, 22]: 40
- Plant response rating, Kochia [13, 23]: 0
- Plant response rating, Kochia [13, 24]: 75
- Plant response rating, Crabgrass, Brazil [14, 29]: 40
- Plant response rating, Crabgrass, Brazil [14, 18]: 10
- Plant response rating, Crabgrass, Brazil [14, 19]: 50
- Plant response rating, Crabgrass, Brazil [14, 20]: 50
- Plant response rating, Crabgrass, Brazil [14, 21]: 50
- Plant response rating, Crabgrass, Brazil [14, 22]: 30
- Plant response rating, Crabgrass, Brazil [14, 23]: 0
- Plant response rating, Crabgrass, Brazil [14, 24]: 80
- Plant response rating, Nutsedge, Yellow [15, 25]: 65
- Plant response rating, Nutsedge, Yellow [15, 26]: 70
- Plant response rating, Nutsedge, Yellow [15, 27]: 65
- Plant response rating, Nutsedge, Yellow [15, 28]: 75
- Plant response rating, Waterhemp_RES2 [16, 31]: 30
- Plant response rating, Waterhemp_RES2 [16, 26]: 40
- Plant response rating, Waterhemp_RES2 [16, 30]: 50
- Plant response rating, Waterhemp_RES1 [17, 31]: 70
- Plant response rating, Waterhemp_RES1 [17, 26]: 80
- Plant response rating, Waterhemp_RES1 [17, 30]: 70
